Experimental data reported in a melting point compilation (Tetko et al.; mined from patent text by program, amines drawn as free bases though some values may be those of a salt).

SMILES	melting point
O=C(O)C1c2ccccc2Cc2ccccc21	139 °C
O=c1c2cccnc2c(-c2cccc(Cl)c2)nn1Cc1ccsc1	165 to 166 °C
COc1ccc(OC)c2c(Nc3cccc(N(C)C)c3)c(C#N)cnc12	103 to 105 °C
CC(C)(C)c1cc(CCc2nnc(N)o2)cc(C(C)(C)C)c1O	220 to 221 °C
COC(=O)c1cc(C(=O)c2ccc(OC)c(C(=O)OC)c2)ccc1OC	142 to 144 °C
ON=Cc1c(Br)ccc2c1OCO2	239 to 240 °C
CCn1cc(O)c(=O)c2ccccc21	180 to 182 °C
CN(CC(=O)O)C(=O)CN1CCCC1=O	178 °C
Clc1cccc(N2CCN(CCCCOc3ccc4cn[nH]c4c3)CC2)c1Cl	101 to 103 °C
NC(=O)NN=Cc1ccc(N(c2ccccc2)c2ccccc2)cc1	106 to 114 °C
O=C(Nc1n[nH]c(=S)s1)NC(Cc1ccccc1)C(=O)NCc1ccncc1 (centres undefined)	208 to 211 °C
COc1ccc(C(N)CCO)cc1OC (centres undefined)	63.5 to 65.5 °C
COc1cc2c(cc1OC)[C@@H]1CCCC[C@@H]1N=C2c1ccc(C(=O)OCC2CC2)cc1 (racemic)	147 to 148 °C
CCOC(=O)C(=O)Nc1ccc2c(c1)OCC(=O)N2	239 to 240 °C
Cn1c(=O)cnn(-c2cc(Cl)c(C(C#N)c3ccc(Cl)cc3)c(Cl)c2)c1=O (centres undefined)	160 °C
CCC(CC)N1C(=O)CCc2c(C)nc(Nc3ccc(C(C)C)cc3Br)nc21	124 to 126 °C
COc1cc(C=C(CC(=O)N2CCOCC2)C(=O)O)cc(OC)c1OC	135 to 138 °C
CN1CC(CO)C=C2c3cccc4c3c(cn4C(C)(C)C)CC21 (centres undefined)	181 to 183 °C
C[C@](O)(CBr)C(=O)Nc1ccc([N+](=O)[O-])c(C(F)(F)F)c1	70 to 74 °C
Cc1ccc(S(=O)(=O)N(Cc2cc(C(C)(C)C)c(O)c(C(C)(C)C)c2)c2ccc(Cl)nc2)cc1	152 to 153 °C
CCCCCCCCCCCCCCc1ccc(OCC(O)CO)c(CC)c1 (centres undefined)	55 to 56 °C
CCCCc1cc(C(O)=S)cc(N)c1Cc1ccccc1	136 to 138 °C
CCc1[nH]n(C2CCCC2)c2nc(-c3cc(C)nc(-n4ccnc4)c3)nc(=O)c1-2	277 to 278 °C

SMILES	melting point
N#Cc1nn(-c2c(Cl)cc(C(F)(F)F)cc2Cl)c(C(=O)C(F)F)c1Cl	124 to 125 °C
CN(C)c1c(CC(=O)O)cccc1C(=O)c1ccccc1	144 to 146 °C
CC(C)(C)c1nc2cc(N3CCN(S(C)(=O)=O)CC3)c([N+](=O)[O-])cc2s1	195 to 197 °C
Cc1oc(-c2ccc3ccccc3c2)nc1CCc1ccc(CCCC2OC(=O)NC2=O)cc1 (centres undefined)	168 to 169 °C
COC(=O)CCC(=O)Nc1cc(Cl)ccc1C(=O)OC	80 to 84 °C
COCCOc1ccc(/C=C/C(=O)NS(=O)(=O)c2ccc(Cl)cc2)c(Oc2ncc(C(F)(F)F)cc2Cl)c1	182 °C
O=C1COc2cc(NC(=O)C(=O)N3CCC(C(O)c4ccccc4)CC3)ccc2N1 (centres undefined)	195 to 197 °C
COC(=O)c1ccc(Oc2c(C)n(CC(=O)O)c3ccc(Cl)cc23)cc1	196 to 197 °C
COc1ccc2cc(-c3csc(Cc4c(Cl)cccc4Cl)n3)ccc2c1	136 to 138 °C
CC(C)Nc1nc2ccccn2c(=O)c1-c1ccc(NC2CCN(C(=O)OC(C)(C)C)C2)cc1 (centres undefined)	210 to 212 °C
CC(=Nc1ccc(NC(=O)CN)cc1)N(C)C	142 to 145 °C
O=C(c1ccc(F)cc1)c1nc[nH]n1	225 to 230 °C
COc1ccc(C(=O)Nc2ccccc2C(=O)NCCCC(=O)O)c(O)c1	201 to 203 °C
CC(=O)OC1CCC2C3CCC4=CC(=O)C=C(C)C4(C)C3CCC12C (centres undefined)	144 °C
CCS(=O)(=O)N(C)C1CCCOc2c(C)cc(Cl)cc21 (centres undefined)	141 to 143 °C
NCCOc1ccc(O)cc1	175 °C
CC#CCN(c1nc(-c2ccc(OC)cc2Cl)c(C)s1)C(COC)c1ccccc1 (centres undefined)	70 °C
Nc1ncnc2c1c(-c1cccc(Cl)c1)cn2-c1ccccc1	173 to 175 °C
COc1ccc2c(c1)CCNC(=O)C2	152 to 154 °C
O=c1oc(-c2ccccc2)cc(O)c1Cc1cccnc1SCc1ccccc1	103 to 106 °C
Cc1noc(NS(=O)(=O)c2ccccc2-c2ccc(-c3ncco3)cc2CN(C)C(=O)c2ccc(F)c(F)c2)c1C	122 to 128 °C
COc1ccccc1-c1c(NC(=O)OC(C)(C)C)oc(=O)c2ccccc12	203 to 205 °C
N#Cc1cc(C2=NOC(c3cc(Cl)cc(Cl)c3)(C(F)(F)F)C2)ccc1-n1cc(Cl)cn1 (centres undefined)	190 to 191 °C

SMILES	melting point
COc1ccc(N2N=C(C)C(C(=O)Nc3ccc(F)cc3)C2=O)cc1 (centres undefined)	125 to 128 °C
COc1ccc(CCN(C)C(C)(C)CO)cc1	40 °C
N#Cc1ccc2[nH]c3c(ccc4c(C=O)c[nH]c43)c2c1	> 250 °C
COc1cccc2c(=O)cc(C3CC3C(=O)O)oc12 (centres undefined)	193 to 196 °C
O=C(O)c1cn(-c2ccc(F)cc2)c(C=Cc2ccncc2)cc1=O	205 to 215 °C
COc1ccc(-c2nnc3c4ccccc4c(Nc4ccc(-c5nn[nH]n5)cc4)nn23)cc1	281 to 284 °C
CCN(C)C(=O)NC(=O)Nc1ccccc1	157 to 159 °C
O=C(O)COc1ccc(SCc2ccc(OCc3ccc(C(F)(F)F)cc3)cc2)c2c1CCC2	145 °C
CSCc1cn(C)c2cc(C(C)(C)C)ccc2c1=O	114 to 116 °C
CCC(O)(c1ccccc1)c1ccccc1	93 to 94 °C
COc1ccc(S(=O)(=O)C2(C(=O)O)CCN(CCCc3ccccc3)CC2)cc1	203 °C
Cc1cc(N2CCN(C(=O)NCCCCC3CCSS3)CC2)ccc1N=C(N)c1cccs1 (centres undefined)	169 to 171 °C
Nc1ccc(S(=O)c2ccccc2)cc1[N+](=O)[O-] (centres undefined)	146 to 147 °C
Cc1noc(-c2ncn3c2[C@@H]2CCCN2C(=O)c2c-3ccc(F)c2Cl)n1	245 to 246 °C
CC(C)(Oc1ccc(C(=O)CN2CCN(c3ccncc3)CC2)cc1)C(=O)O	163 to 167 °C
COC(=O)c1ccc(N2CC(CNC(C)=S)OC2=O)cc1F (centres undefined)	152 to 154 °C
N#CSCC(=O)N1CCCCC1	78 to 79 °C
COCc1cccc(OCCc2cnc(SC)[nH]c2=O)c1	129 to 131 °C
Clc1ccc(-c2nc(-n3ccnc3)oc2CCC2=NCCO2)cc1	120 to 121 °C
COC(=O)C(=CC(=CN(C)C)c1ccc(C)cc1[N+](=O)[O-])[N+](=O)[O-]	213 to 215 °C
Nc1cc(Br)c(Br)cc1N	189 to 190 °C

More lines, now with the values ahead:

melting point	SMILES
250 to 254 °C	c1cn(Cc2ccc3c(c2)Cc2c(-c4ccsc4)n[nH]c2-3)nn1
145 to 147 °C	CN(C)CCCCC1CCCCN1C(=O)N1c2ccccc2C(=O)Nc2cccnc21 (centres undefined)
116 °C	COc1ccc(N=C(Cl)c2ccc(OC)cc2)cc1
210 °C	N#Cc1ccc(OCCCC(=O)O)cc1
162 to 164 °C	O=c1c(Br)c(CCC2CC2)nc2ccccn12
202 to 208 °C	COc1ccc(-c2c(C)ccn2N2C(=O)c3ccccc3C2=O)c(Cl)c1
137 to 139 °C	Cc1nc2cc(OCc3ccccc3)c(OCc3ccccc3)cc2nc1C(=O)OCc1ccccc1
159 to 162 °C	COc1ccc2cc(-c3cnc(Cc4ccc5ccccc5c4)o3)ccc2c1
140 to 142 °C	COC(=O)C1=Cc2cc(-c3ccc(OC(C)C)cc3)ccc2S(=O)(=O)CC1
171 to 175 °C	COc1nc(-n2cc(C(=O)O)c(=O)c3cc(F)c(N4CC(N)C4)c(Cl)c32)c(F)cc1F
138 to 146 °C	COc1cccc(C2=CC(=O)N(C)C2=O)c1
196 to 197 °C	CC(Br)C(Br)C(=O)NC(=O)Nc1ccc(Cl)c(Cl)c1 (centres undefined)
203 to 204 °C	CN1c2ccccc2NC(=S)c2cscc21
64 to 65 °C	COC=C(C#N)Cc1ccc(OC)c(OC)c1
285 to 287 °C	Cc1cc(-c2ccc(Cl)cc2)n2ncc(C#N)c2n1
90 to 96 °C	Nn1c(C(F)(F)F)cc(=O)n(-c2cc(Oc3ncccc3[N+](=O)[O-])c(Cl)cc2F)c1=O
104 to 105 °C	O=C(CCl)NCC1(c2ccc(Cl)c(Cl)c2)CCC1
205 to 206 °C	Cc1c(CC(c2ccccc2)c2ccccc2)ncn1C(c1ccccc1)(c1ccccc1)c1ccccc1
248 to 250 °C	Cc1ccc(NC(=O)c2cn(-c3ccccc3)c3ccccc3c2=O)nc1

melting point	SMILES
73 to 75 °C	COC(=O)C(C)(C)CCCOc1cc(C)c([N+](=O)[O-])cc1C
126 to 127 °C	OC(C=CCN1CCC(O)(c2ccc(Cl)cc2)CC1)c1ccc(F)cc1 (centres undefined)
287 to 289 °C	CC(C)Sc1cc2c(cc1Cl)N=C(C(Cl)Cl)NS2(=O)=O
208 to 214 °C	CCNC(=O)[C@H]1N(C(=O)[C@@H](O)[C@H](Cc2ccccc2)NC(=O)c2cc(C)cc(O)c2C)CC(F)(F)C1(C)C
192 to 193 °C	CCCCSc1cc(C(=O)O)cc(S(N)(=O)=O)c1Sc1ccccc1
228 °C	Cc1ccc(NC(=O)c2cccc(N(C)C)c2)cc1Nc1ncc(-c2cccnc2)o1
> 361 °C	NC1=NS(=O)(=O)c2sc(Cl)cc2N1
216 to 218 °C	Nc1c(Br)cc(S(N)(=O)=O)cc1[N+](=O)[O-]
318 to 319 °C	O=C1Cn2c(nc3ccccc3c2=O)-c2ccccc2N1
111 to 113 °C	CN1C(=O)Cc2cccc(Cl)c21
75 to 93 °C	CC1CCCC(C)C1NSc1nc2ccccc2s1 (centres undefined)
127 to 130 °C	CCn1c(C)nc2cc(C(F)(F)F)c(OC)cc21
290 to 295 °C	Nc1ccnc(N2CCC(c3ccc(S(N)(=O)=O)cc3)CC2)c1
95 to 97 °C	CCC(Oc1ccc(Cl)c(C)c1)C(=O)NCc1ccccc1 (centres undefined)
100 °C	CN(C)C(=S)C1(c2ccccn2)CCCS1 (centres undefined)
223 to 224 °C	O=c1[nH]c2cc(F)c(NCC3COc4ccccc4C3)cc2o1 (centres undefined)
166 to 168 °C	Cn1cncc1Cn1nnnc1-c1cccc(Cl)c1Cl
144 to 148 °C	C=C(C)COc1ccc(OC)cc1-c1nc2ccccc2[nH]1
